Measured values: patent US20060134212A1, “Lercanidipine immediate release compositions” (Forest Laboratories, Inc., priority 2004, published 2006)

Experiments:
[1] = cited from earlier work
Caco-2 cell monolayers = assay: Caco-2 cell analysis: lercanidipine permeation with different concentrations of Polysorbate 80 (Tween 80); format: in vitro ADME
Source text: The objective of this study was to investigate the effects of surfactant on the permeability characteristics of lercanidipine across Caco-2 cell monolayers. Caco-2 cell monolayers have been used as a model of intestinal mucosa for predicting oral drug absorption (P. Artursson. Epithelial transport of drugs in cell culture. I: A model for studying the passive diffusion of drugs over intestinal absorptive (Caco-2) cells. JPharm (1990)).
Transport experiments for the permeation characteristics of lercanidipine in the presence of different concentrations of Polysorbate 80 (Tween 80) were conducted as follows. […] The samples were collected and analyzed for lercanidipine.
The permeation characteristics lercanidipine across Caco-2 cell monolayers in the presence of different concentrations of Tween 80 were analyzed using four dosing solutions. […]
Papp values will be calculated using the equation: Papp=ΔQ/Δt/(A*C0) where ΔQ/Δt is the linear appearance rate of mass in the receiver solution, A is the filter/cell surface area (1 cm^2 for 12-well system), and C0 is the initial concentration of the test compounds.

[2] = cited from earlier work; remark: listed apart in the source
Caco-2 cell = Caco-2 cell apparatus; cited from earlier work
[3] = species not given; cited from earlier work

Row | Compound | solubility ([1]; at pH 5 and above) | aqueous solubility ([1]; water) | increase in Caco-2 permeability upon the addition of surfactant (Caco-2 cell monolayers; 50 μg/ml Lerc in HBSS, pH 6.8, Tween 80 added vs none) | change of Caco-2 permeability at higher surfactant (Caco-2 cell monolayers; surfactant in transport buffer increased ten fold from 0.02 to 0.2) | time of peak plasma level following dosage ([2]; oral administration) [h] | increase of amount of lercanidipine absorbed with food ([2]; simultaneous intake of food (especially high fat) vs administration without food) | Papp (Caco-2 cell) | plasma concentration (AUCo-t), Form II compared to Form I [3] | time to maximum concentration (Tmax), one form compared to the other [3]
1 | COC(=O)C1=C(C)NC(C)=C(C(=O)OC(C)(C)CN(C)CCC(c2ccccc2)c2ccccc2)C1c1cccc([N+](=O)[O-])c1 (stereo not shown) [lercanidipine, methyl 1,1,N-trimethyl-N-(3,3-diphenylpropyl)-2-aminoethyl 1,4-dihydro-2,6-dimethyl-4-(3-nitrophenyl)pyridine-3,5-dicarboxylate] | less than 20 μg/ml | about 5 μg/ml | three fold increase in permeability | permeability of lercanidipine decreases | 1 to 3 | between three and four times | about 0.5×10^−7 cm/s |  | 
2 | COC(=O)C1=C(C)NC(C)=C(C(=O)OC(C)(C)CN(C)CCC(c2ccccc2)c2ccccc2)C1c1cccc([N+](=O)[O-])c1.Cl (stereo not shown) [Form II] |  |  |  |  |  |  |  | higher plasma concentration | delayed time of maximum concentration
3 | COC(=O)C1=C(C)NC(C)=C(C(=O)OC(C)(C)CN(C)CCC(c2ccccc2)c2ccccc2)C1c1cccc([N+](=O)[O-])c1.Cl (stereo not shown) [Form I] |  |  |  |  |  |  |  |  | shorter time to maximum concentration
